{
  "source": "patent EP1157000B1",
  "about": "(Warner-Lambert Company LLC, priority 1999, dated 2001)",
  "key": {"ex vivo rat retinas": {"tested_on": "ex vivo rat retinas", "assay": "CO2 fixation: H14CO3 incorporation into metabolites by ex vivo retinas", "format": "cell-based", "details": "for TCA cycle / Asp / Gln / Glu / Total / Lact: half retinas, 37°C, 25 mM H14CO3, 0.2 mM pyruvate, BCAA 0.2 mM each; for Lact: lactate peak includes pyruvate", "procedure": "Sprague Dawley rats (200-400g) were used for all experiments. Rats were housed under a 12 hour light/dark cycle, and fed and watered ad libidum. After anaesthetizing the rats with-nembutal (IP), eyes were enucleated and retinas dissected in ice-cold buffer.\nFreshly isolated half-retinas were preincubated at 37°C for 3 minutes in buffer A (pH 7.4) containing 118 mM NaCl, 4.7 mM KCl, 2.5 mM CaCl, 1.2 mM KH2PO4, 1.17 mM MgSO4, 20 mM HEPES, 5 mM glucose, 0.05 mM NH4Cl and 25 mM NaH^14CO3. Pyruvate (either 0.2 or 5mM) was also included in the buffer. 1 ml buffer as well as the gas phase within 20 ml vials were equilibrated with 95% O2, 5% CO2. Incubations were initiated by addition of 10 µCi/ml H^14CO3. The vessels were then immediately closed to the atmosphere. Most incubations continued for 20 minutes, although in some preliminary studies, times were varied from 10-60 minutes. Reactions were stopped by removing the half retinas from the buffer and placing them in 2% perchloric acid. The buffer was separately acidified with perchloric acid (final concentration 2%) and unreacted ^14CO2 was allowed to diffuse out of the acidified samples.\nThe total amount of product (non-volatile carbon 14 metabolites) was determined by measuring the radioactivity in aliquots of the medium and tissue samples. Metabolites in the extracts were separated by Dowex-1 acetate chromatography as previously described: Williamson, J.R., and Corkey, B. (1969) \"Methods in Enzymology\", Vol, 13, ed. Lowenstein, J.M. (Academic Press) pp 434-513, and quantified by scintillation counting. In most instances, individual metabolite carbon 14 data is reported as the sum of the radioactivity in the medium plus tissue extracts. Complete quantification of ^14C-metabolite amounts in both the retina and in the medium can be found below in Tables I and II.\nThe chromatographic procedure employed in this example separates glutamine, glutamate, aspartate, and lactic acid. The citric acid cycle intermediates remain on the Dowex columns and are estimated as the difference between the total counts in the sample and the counts that are eluted. Evidence of the validity of this procedure has been reported previously. Before subjecting samples to chromatography, ^14C-pyruvic acid in the samples was converted stoichiometrically to lactate by treating the samples with excess NADH and lactate dehydrogenase. Therefore the single lactate peak reported contains all carbon 14 in both lactate and pyruvate. To determine specific activity of glutamate and glutamine in the retinal samples, the mass amount of the glutamate was measured fluorometrically using a standard enzymatic procedure: Patel, M.S. (1989) in Neuromethods: Carbohydrate and Energy Metabolism, Vol II, eds. Boulton, A.A and Baker G.D. (The Humana Press, Inc.) pp 309-340. The mass amount of glutamine was measured after chromatographic separation from glutamate followed by a luminometric determination previously described. ATP and creatine phosphate were measured fluorometrically using an enzymatic assay.\nData are reported in text and figures by determining the dpm/mg in a particular metabolite and dividing by the specific activity of medium HCO3. Therefore all data are reported as nmoles of H^14CO3/mg protein for any given metabolite."}, "BCATc": {"molecular_target": "T1, BCATc (Homo sapiens, UniProt P54687)", "T1 sequence (P54687 1-386)": "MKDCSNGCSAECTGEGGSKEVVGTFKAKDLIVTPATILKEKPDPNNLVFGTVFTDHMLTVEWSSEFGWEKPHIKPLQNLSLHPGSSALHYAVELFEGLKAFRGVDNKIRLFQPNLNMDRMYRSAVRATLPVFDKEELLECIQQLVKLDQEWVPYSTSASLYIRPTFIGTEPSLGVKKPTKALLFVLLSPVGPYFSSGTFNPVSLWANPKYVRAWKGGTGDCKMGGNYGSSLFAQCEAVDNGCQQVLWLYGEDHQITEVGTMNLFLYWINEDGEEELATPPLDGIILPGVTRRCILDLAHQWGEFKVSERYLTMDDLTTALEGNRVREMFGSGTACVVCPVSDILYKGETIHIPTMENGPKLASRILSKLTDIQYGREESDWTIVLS", "details": "cited from earlier work"}, "[1]": {"tested_on": "freshly dissected rat retinas", "assay": "Synthesis of leucine in freshly dissected retinas", "format": "cell-based", "details": "data not shown"}, "BCATm": {"molecular_target": "T2, BCATm (Homo sapiens, UniProt O15382)", "T2 sequence (O15382 28-392)": "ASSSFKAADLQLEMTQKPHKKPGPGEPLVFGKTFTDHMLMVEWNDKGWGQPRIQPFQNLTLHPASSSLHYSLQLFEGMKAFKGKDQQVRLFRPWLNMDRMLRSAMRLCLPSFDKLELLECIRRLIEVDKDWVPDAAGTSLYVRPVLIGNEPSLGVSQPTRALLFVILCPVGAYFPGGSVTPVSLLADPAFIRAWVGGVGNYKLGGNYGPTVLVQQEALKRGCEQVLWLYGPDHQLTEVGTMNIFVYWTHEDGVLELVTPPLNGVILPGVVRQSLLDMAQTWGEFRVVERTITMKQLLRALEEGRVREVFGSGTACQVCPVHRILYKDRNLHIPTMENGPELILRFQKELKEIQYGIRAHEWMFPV", "details": "cited from earlier work"}, "[2]": {"details": "0, 0.2, 1, or 5 mM GBP, 20 minutes, Figure 5"}, "[3]": {"details": "compartment in (retina), 20 min, GBP 1 mM"}, "[4]": {"details": "compartment out (medium), 20 min, GBP 1 mM"}, "[5]": {"details": "sum of medium plus tissue, 20 min, GBP 1 mM"}},
  "data": [
    {"smiles": "NCC1(CC(=O)O)CCCCC1", "note": "[GBP, gabapentin]", "values": [
      {"measurement": "extent of inhibition of the synthesis of ^14C-glutamate plus ^14C-glutamine on increasing the concentration over 1 mM", "setting": "ex vivo rat retinas; [2]", "result": "did not significantly increase"},
      {"measurement": "formation of citric acid cycle intermediates, lactate and pyruvate", "setting": "ex vivo rat retinas; [2]", "result": "no influence"},
      {"measurement": "formation of ^14C-glutamate plus ^14C-glutamine", "setting": "ex vivo rat retinas; 1 mM GBP plus 200 µM each of leucine, isoleucine and valine", "result": "89 % of control"},
      {"measurement": "formation of ^14C-glutamate plus ^14C-glutamine", "setting": "ex vivo rat retinas; 1 mM GBP plus 200 µM each of leucine, isoleucine and valine, p<0.01 versus GBP alone", "result": "2.84 ± 1.15", "unit": "nmol/mg"},
      {"measurement": "formation of ^14C-glutamate plus ^14C-glutamine", "setting": "ex vivo rat retinas; 1 mM GBP, 20 min, 0.2 mM pyruvate, p<0.001", "result": "71 % of control"},
      {"measurement": "formation of ^14C-glutamate plus ^14C-glutamine", "setting": "ex vivo rat retinas; 1 mM GBP, 20 min, 0.2 mM pyruvate, control 3.18 ± 0.12", "result": "2.26 ± 0.05", "unit": "nmol/mg"},
      {"measurement": "incorporation of carbon 14 into lactate and citric acid cycle intermediates", "setting": "ex vivo rat retinas; 1 mM GBP, control 1.93 ± .06, increase not significant", "result": "2.12 ± 0.13 nmoles of H^14CO3/mg protein"},
      {"measurement": "H^14CO3 incorporation into lactate and citric acid cycle intermediates", "setting": "ex vivo rat retinas; GBP 1 mM", "result": "without slowing"},
      {"measurement": "Inhibition of de novo glutamate synthesis after addition of BCAA", "setting": "ex vivo rat retinas; GBP 1 mM plus 0.6 mM BCAA", "result": "reversed"},
      {"measurement": "inhibition at 1000 µM", "setting": "ex vivo rat retinas; Rattus norvegicus, GBP 1 mM, read-out: inhibited synthesis of ^14C-glutamate plus ^14C-glutamine from H^14CO3", "result": 31, "unit": "%"},
      {"measurement": "TCA cycle", "setting": "ex vivo rat retinas; compartment in (retina), estimated as total counts minus eluted counts, 20 min, GBP 1 mM", "result": "1.514 ± 0.103 nmoles of H^14CO3/mg protein"},
      {"measurement": "Asp", "setting": "ex vivo rat retinas; [3]", "result": "0.549 ± 0.019 nmoles of H^14CO3/mg protein"},
      {"measurement": "Gln", "setting": "ex vivo rat retinas; [3]", "result": "0.389 ± 0.026 nmoles of H^14CO3/mg protein"},
      {"measurement": "Glu", "setting": "ex vivo rat retinas; [3]", "result": "1.324 ± 0.025 nmoles of H^14CO3/mg protein"},
      {"measurement": "Total", "setting": "ex vivo rat retinas; [3]", "result": "3.902 ± 0.122 nmoles of H^14CO3/mg protein"},
      {"measurement": "Lact", "setting": "ex vivo rat retinas; [3]", "result": "0.089 ± 0.006 nmoles of H^14CO3/mg protein"},
      {"measurement": "Asp", "setting": "ex vivo rat retinas; [4]", "result": "0.035 ± 0.003 nmoles of H^14CO3/mg protein"},
      {"measurement": "Gln", "setting": "ex vivo rat retinas; [4]", "result": "0.545 ± 0.024 nmoles of H^14CO3/mg protein"},
      {"measurement": "Glu", "setting": "ex vivo rat retinas; [4]", "result": "0.008 ± 0.002 nmoles of H^14CO3/mg protein"},
      {"measurement": "TCA cycle", "setting": "ex vivo rat retinas; [4]", "result": "0 nmoles of H^14CO3/mg protein"},
      {"measurement": "Total", "setting": "ex vivo rat retinas; [4]", "result": "1.066 ± 0.028 nmoles of H^14CO3/mg protein"},
      {"measurement": "Lact", "setting": "ex vivo rat retinas; [4]", "result": "0.516 ± 0.030 nmoles of H^14CO3/mg protein"},
      {"measurement": "Asp", "setting": "ex vivo rat retinas; [5]", "result": "0.584 ± 0.022 nmoles of H^14CO3/mg protein"},
      {"measurement": "Gln", "setting": "ex vivo rat retinas; [5]", "result": "0.934 ± 0.036 nmoles of H^14CO3/mg protein"},
      {"measurement": "Glu", "setting": "ex vivo rat retinas; [5]", "result": "1.332 ± 0.025 nmoles of H^14CO3/mg protein"},
      {"measurement": "TCA cycle", "setting": "ex vivo rat retinas; [5]", "result": "1.514 ± 0.103 nmoles of H^14CO3/mg protein"},
      {"measurement": "Total", "setting": "ex vivo rat retinas; [5]", "result": "4.968 ± 0.028 nmoles of H^14CO3/mg protein"},
      {"measurement": "Lact", "setting": "ex vivo rat retinas; [5]", "result": "0.605 ± 0.028 nmoles of H^14CO3/mg protein"},
      {"measurement": "inhibition of BCATc", "setting": "BCATc", "result": "inhibits"},
      {"measurement": "synthesis of leucine", "setting": "[1]", "result": "inhibits"},
      {"measurement": "inhibition of BCATm", "setting": "BCATm", "result": "not"}
    ]}
  ]
}
